Source: US5981558A, “DC107 derivatives” (Kyowa Hakko Kogyo Co., Ltd., priority 1996, dated 1999)
Where two headings read alike, the source gives them in different places.

How the values were obtained:
[1] = system: HeLa S3 cells; assay: HeLa S3 Cell Growth Inhibition Test; assay type: cell-based
Method: In each well of a 96-well microtiter plate was placed 0.1 mL of HeLa S3 cells having a concentration of 8×10^3 cells/mL and prepared in an MEM culture medium containing 10% fetal bovine serum and 2 mM glutamine. After the cells were incubated overnight at 37° C. in a carbon dioxide incubator, a test compound suitably diluted with a medium was added to the wells in an amount of 0.05 mL for each well. The cells were incubated at 37° C. for 72 hours in a carbon dioxide incubator. After the culture supernatant was removed, 0.1 mL of a culture medium containing 0.02% Neutral Red was added to each well. The cells were then incubated at 37° C. for 1 hour in a carbon dioxide incubator to dye the cells. After the culture supernatant was removed, each residue was rinsed once with physiological saline and the pigment was extracted with 0.001 N hydrochloric acid/30% ethanol. The absorbance at 550 nm of each extract was measured with a microplate reader. The drug concentration required for the 50% inhibition of cell growth, which is referred to as IC50, was calculated by comparing the absorbance for untreated cells with those for cells treated with the drug in known concentrations.

[2] = system: Sarcoma 180 mouse solid tumor; assay: Antitumor activity against Sarcoma 180 mouse solid tumor; assay type: in vivo, mouse (ddY); settings: Sarcoma-180, iv, 168 h
Method: To a ddY mouse were intraperitoneally transplanted 5×10^6 sarcoma 180 cells. On the seventh day from the transplant, the cells were collected from the ascites, washed once with sterilized physiological saline, and then diluted with sterilized physiological saline to prepare a cell suspension having a concentration of 5×10^7 cells/mL. This suspension was transplanted in an amount of 0.01 mL to a subcutaneous part of the right axilla of each of male ddY mice each weighing 20±1 g.
A test compound was dissolved in physiological saline containing polyoxyethylene sorbitan monolaurate. At 24 hours after the tumor transplant, 0.2 mL of the solution was intravenously administered to the tail of each of a group of five mice.

[3] = Homo sapiens, HeLa S3, 72 h, HeLa S3, 72 hours incubation, Neutral Red, read-out: IC50, HeLa S3 cell growth inhibition
[4] = 8.0 mg/kg i.v. once, 24 hours after transplant, tumor volume on day 7, read-out: T/C (tumor volume ratio treated/control)
[5] = 4.0 mg/kg i.v. once, 24 hours after transplant, tumor volume on day 7, read-out: T/C (tumor volume ratio treated/control)
[6] = Homo sapiens, HeLa S3, 72 h, read-out: IC50, HeLa S3 cell growth inhibition, HeLa S3, 72 hours incubation, Neutral Red
[7] = read-out: T/C (tumor volume ratio treated/control)
[8] = 16 mg/kg i.v. once, 24 hours after transplant, tumor volume on day 7, read-out: T/C (tumor volume ratio treated/control)

SMILES: CC1=CC(OC2CCCCO2)C(=O)C=CC=Cc2csc(n2)C(C)N2C(=O)CC(C(C)(O)C(=O)SCOC(=O)C(C)(C)NC(=O)OCc3ccccc3)(CC1)[S+]2[O-] (single isomer, unassigned) [Compound 4]
- IC50 [1, 3]: 39 nM
- response vs control in vivo at 8 mg/kg [2, 4]: 30%

SMILES: COC(=O)NCC(=O)OCSC(=O)C(C)(O)C12CC/C(C)=C/C(OC3CCCCO3)C(=O)/C=C/C=C\c3csc(n3)C(C)N(C(=O)C1)[S+]2[O-] (single isomer, unassigned) [Compound 41]
- IC50 ([1]; HeLa S3, 72 hours incubation, Neutral Red, read-out: IC50, HeLa S3 cell growth inhibition): 4 nM
- response vs control in vivo at 4 mg/kg [2, 5]: 32%

SMILES: COC(=O)[C@H](CCC(=O)OCSC(=O)C(C)(O)C12CC/C(C)=C/C(OC3CCCCO3)C(=O)/C=C/C=C\c3csc(n3)C(C)N(C(=O)C1)[S+]2[O-])NC(=O)[C@@]12O[C@H]3COC(C)(C)O[C@H]3[C@@H]1OC(C)(C)O2 (single isomer, unassigned) [Compound 50]
- IC50 [1, 6]: 16 nM
- response vs control in vivo at 8 mg/kg [2, 7]: 41%

SMILES: CC1=CC(O)C(=O)C=CC=Cc2csc(n2)C(C)N2C(=O)CC(C(C)(O)C(=O)SCOC(=O)C(C)(C)NC(=O)OCc3ccccc3)(CC1)[S+]2[O-] (stereo not shown) [Compound 3]
- IC50 [1, 3]: 130 nM
- response vs control in vivo at 16 mg/kg [2, 8]: 21%

SMILES: CC1=CC(OC2CCCCO2)C(=O)C=CC=Cc2csc(n2)C(C)N2C(=O)CC(C(C)(O)C(=O)SCOC(=O)c3ccccc3)(CC1)[S+]2[O-] (stereo not shown) [Compound 7]
- IC50 [1, 6]: 50 nM
- response vs control in vivo at 4 mg/kg [2, 7]: 23%

SMILES: CC1=CC(O)C(=O)C=CC=Cc2csc(n2)C(C)N2C(=O)CC(C(C)(O)C(=O)SCOC(=O)C3CCC(C(=O)O)CC3)(CC1)[S+]2[O-] (stereo not shown) [Compound 11]
- IC50 ([1]; Homo sapiens, HeLa S3, 72 h, read-out: IC50, HeLa S3 cell growth inhibition, footnote *: Value after 72 hours of drug treatment): 100 nM
- response vs control in vivo at 4 mg/kg [2, 7]: 48%

SMILES: CC1=CC(OC2CCCCO2)C(=O)C=CC=Cc2csc(n2)C(C)N2C(=O)CC(C(C)(O)C(=O)SCOC(=O)C3CCC(C(=O)O)CC3)(CC1)[S+]2[O-] (stereo not shown) [Compound 12]
- IC50 [1, 3]: 870 nM
- response vs control in vivo at 8 mg/kg [2, 4]: 47%

SMILES: CC1=CC(O)C(=O)C=CC=Cc2csc(n2)C(C)N2C(=O)CC(C(C)(O)C(=O)SCOC(=O)CO)(CC1)[S+]2[O-] (stereo not shown) [Compound 14]
- IC50 [1, 6]: 380 nM
- response vs control in vivo at 2 mg/kg [2, 7]: 44%

SMILES: CC1=CC(OC2CCCCO2)C(=O)C=CC=Cc2csc(n2)C(C)N2C(=O)CC(C(C)(O)C(=O)SCOC(=O)CO)(CC1)[S+]2[O-] (stereo not shown) [Compound 15]
- IC50 [1, 6]: 14 nM
- response vs control in vivo at 1 mg/kg [2, 7]: 45%

SMILES: CC1=CC(O)C(=O)C=CC=Cc2csc(n2)C(C)N2C(=O)CC(C(C)(O)C(=O)SCOC(=O)CNC(=O)OC(C)(C)C)(CC1)[S+]2[O-] (stereo not shown) [Compound 16]
- IC50 [1, 6]: 6.1 nM
- response vs control in vivo at 2 mg/kg [2, 7]: 47%

SMILES: CC1=CC(O)C(=O)C=CC=Cc2csc(n2)C(C)N2C(=O)CC(C(C)(O)C(=O)SCOC(=O)CC[C@H](NC(=O)OC(C)(C)C)C(=O)OC(C)(C)C)(CC1)[S+]2[O-] (stereo partly shown) [Compound 22]
- IC50 [1, 3]: 7.4 nM
- response vs control in vivo at 4 mg/kg [2, 5]: 42%

SMILES: COC(=O)[C@H](CCC(=O)OCSC(=O)C(C)(O)C12CCC(C)=CC(O)C(=O)C=CC=Cc3csc(n3)C(C)N(C(=O)C1)[S+]2[O-])NC(=O)[C@H]1O[C@@H]2OC(C)(C)O[C@@H]2[C@H]2OC(C)(C)O[C@H]21 (stereo partly shown) [Compound 25]
- IC50 [1, 3]: 800 nM
- response vs control in vivo at 16 mg/kg [2, 8]: 30%

SMILES: COC(=O)[C@H](CCC(=O)OCSC(=O)C(C)(O)C12CCC(C)=CC(O)C(=O)C=CC=Cc3csc(n3)C(C)N(C(=O)C1)[S+]2[O-])NC(=O)C1(C)COC(C)(C)OC1 (stereo partly shown) [Compound 27]
- response vs control in vivo at 2 mg/kg [2, 7]: 46%

SMILES: CC(=O)NC(Cc1ccc(OC(C)=O)cc1)C(=O)OCSC(=O)C(C)(O)C12CCC(C)=CC(O)C(=O)C=CC=Cc3csc(n3)C(C)N(C(=O)C1)[S+]2[O-] (stereo not shown) [Compound 29]
- IC50 [1, 3]: 400 nM
- response vs control in vivo at 4 mg/kg [2, 5]: 47%

SMILES: COCCOCCOCCOCCOCCOCC(=O)OCSC(=O)C(C)(O)C12CC/C(C)=C/C(O)C(=O)/C=C/C=C\c3csc(n3)C(C)N(C(=O)C1)[S+]2[O-] (stereo not shown) [Compound 37]
- response vs control in vivo at 8 mg/kg [2, 7]: 36%

SMILES: COC(=O)NCC(=O)OCSC(=O)C(C)(O)C12CC/C(C)=C/C(OC3CCCCO3)C(=O)/C=C/C=C\c3csc(n3)C(C)N(C(=O)C1)[S+]2[O-] (stereo not shown) [Compound 40]
- IC50 [1, 3]: 15 nM
- response vs control in vivo at 4 mg/kg [2, 5]: 36%

SMILES: C=C(CSC(=O)C(C)(O)C12CC/C(C)=C/C(OC3(OC)CCOCC3)C(=O)/C=C/C=C\c3csc(n3)C(C)N(C(=O)C1)[S+]2[O-])C(=O)OC (stereo not shown) [Compound 113]
- IC50 [1, 3]: 42 nM

SMILES: C=C(CSC(=O)C(C)(O)C12CC/C(C)=C/C(O)C(=O)/C=C/C=C\c3csc(n3)C(C)N(C(=O)C1)[S+]2[O-])C(=O)O (stereo not shown) [Compound 115]
- IC50 [1, 3]: > 10000 nM

SMILES: C=C(CSC(=O)C(C)(O)C12CC/C(C)=C/C(OC3(OC)CCOCC3)C(=O)/C=C/C=C\c3csc(n3)C(C)N(C(=O)C1)[S+]2[O-])C(=O)O (stereo not shown) [Compound 116]
- IC50 [1, 3]: 8500 nM

SMILES: C=C(CSC(=O)C(C)(O)C12CC/C(C)=C/C(O)C(=O)/C=C/C=C\c3csc(n3)C(C)N(C(=O)C1)[S+]2[O-])C(=O)N1CCCCC1 (stereo not shown) [Compound 117]
- IC50 [1, 6]: 2100 nM

SMILES: CCC/C=C(\CSC(=O)C(C)(O)C12CC/C(C)=C/C(O)C(=O)/C=C/C=C\c3csc(n3)C(C)N(C(=O)C1)[S+]2[O-])C(=O)OC (stereo not shown) [Compound 118]
- IC50 [1, 6]: 580 nM

SMILES: CCC/C=C(\CSC(=O)C(C)(O)C12CC/C(C)=C/C(OC3(OC)CCOCC3)C(=O)/C=C/C=C\c3csc(n3)C(C)N(C(=O)C1)[S+]2[O-])C(=O)OC (stereo not shown) [Compound 119]
- IC50 [1, 3]: 870 nM

SMILES: COC(=O)/C(=C/c1ccccc1)CSC(=O)C(C)(O)C12CC/C(C)=C/C(O)C(=O)/C=C/C=C\c3csc(n3)C(C)N(C(=O)C1)[S+]2[O-] (stereo not shown) [Compound 120]
- IC50 [1, 6]: 270 nM

SMILES: CC1=C(CSC(=O)C(C)(O)C23CC/C(C)=C/C(O)C(=O)/C=C/C=C\c4csc(n4)C(C)N(C(=O)C2)[S+]3[O-])C(=O)OC(C)(C)O1 (stereo not shown) [Compound 121]
- IC50 [1, 3]: 1500 nM

SMILES: CC1=C(CSC(=O)C(C)(O)C23CC/C(C)=C/C(O)C(=O)/C=C/C=C\c4csc(n4)C(C)N(C(=O)C2)[S+]3[O-])C(=O)OC2(CCOCC2)O1 (stereo not shown) [Compound 124]
- IC50 [1, 3]: 960 nM

SMILES: CCOC(=O)N1CCC2(CC1)OC(=O)C(CSC(=O)C(C)(O)C13CC/C(C)=C/C(O)C(=O)/C=C/C=C\c4csc(n4)C(C)N(C(=O)C1)[S+]3[O-])=C(C)O2 (stereo not shown) [Compound 126]
- IC50 ([1]; Homo sapiens, HeLa S3, 72 hours incubation, Neutral Red, read-out: IC50, HeLa S3 cell growth inhibition): 5500 nM

SMILES: C/C1=C\C(O)C(=O)/C=C/C=C\c2csc(n2)C(C)N2C(=O)CC(C(C)(O)C(=O)SCOC(=O)CCCNC(=O)C3(C)COC(C)(C)OC3)(CC1)[S+]2[O-] (stereo not shown) [Compound 138]
- response vs control in vivo at 4 mg/kg [2, 7]: 34%

SMILES: C/C1=C\C(O)C(=O)/C=C/C=C\c2csc(n2)C(C)N2C(=O)CC(C(C)(O)C(=O)SCOC(=O)CCCNC(=O)[C@@]34O[C@@H](CO)[C@@H](O)[C@@H]3OC(C)(C)O4)(CC1)[S+]2[O-] (stereo partly shown) [Compound 141]
- response vs control in vivo at 4 mg/kg [2, 7]: 31%

SMILES: C/C1=C\C(O)C(=O)/C=C/C=C\c2csc(n2)C(C)N2C(=O)CC(C(C)(O)C(=O)SCOC(=O)OCCN3CCCC3=O)(CC1)[S+]2[O-] (stereo not shown) [Compound 146]
- response vs control in vivo at 4 mg/kg [2, 7]: 38%

SMILES: COCCOCCOCCOCC(=O)OCSC(=O)C(C)(O)C12CC/C(C)=C/C(O)C(=O)/C=C/C=C\c3csc(n3)C(C)N(C(=O)C1)[S+]2[O-] (stereo not shown) [Compound 147]
- response vs control in vivo at 2 mg/kg [2, 7]: 43%

SMILES: COCCOCCOCCOC(=O)OCSC(=O)C(C)(O)C12CC/C(C)=C/C(O)C(=O)/C=C/C=C\c3csc(n3)C(C)N(C(=O)C1)[S+]2[O-] (stereo not shown) [Compound 149]
- response vs control in vivo at 8 mg/kg [2, 7]: 42%

SMILES: C/C1=C\C(O)C(=O)/C=C/C=C\c2csc(n2)C(C)N2C(=O)CC(C(C)(O)C(=O)SCc3oc(=O)oc3CO[C@@H]3C[C@@H](O)[C@H](O)[C@@H](CO)O3)(CC1)[S+]2[O-] (stereo partly shown) [Compound 152]
- response vs control in vivo at 16 mg/kg [2, 7]: 17%

SMILES: C/C1=C\C(O)C(=O)/C=C/C=C\c2csc(n2)C(C)N2C(=O)CC(C(C)(O)C(=O)SCc3oc(=O)oc3CO[C@@H]3C[C@H](O)[C@@H](O)[C@H](C)O3)(CC1)[S+]2[O-] (stereo partly shown) [Compound 154]
- response vs control in vivo at 4 mg/kg [2, 7]: 40%

SMILES: C/C1=C\C(O)C(=O)/C=C/C=C\c2csc(n2)C(C)N2C(=O)CC(C(C)(O)C(=O)SCc3oc(=O)oc3CO[C@H]3C[C@H](O)[C@@H](O)[C@H](C)O3)(CC1)[S+]2[O-] (stereo partly shown) [Compound 155]
- response vs control in vivo at 8 mg/kg [2, 7]: 37%

SMILES: C/C1=C\C(OC2CCCCO2)C(=O)/C=C/C=C\c2csc(n2)C(C)N2C(=O)CC(C(C)(O)C(=O)SCc3oc(=O)oc3COC(=O)CN(C)C)(CC1)[S+]2[O-] (stereo not shown) [Compound 159]
- response vs control in vivo at 32 mg/kg [2, 7]: 33%
